# In patent US20230112444A1, “COMBINATION THERAPIES OF CHIMERIC ANTIGEN RECEPTORS TARGETING B-CELL […] AND GAMMA SECRETASE INHIBITORS” (priority 2020, published 2023):
# Like-named read-outs stand apart in the source and are kept apart here.
# Assays:
# [1] = test system: MM.1S cells; experiment: Cytolytic activity of BCMA CAR T cells against target cells pre-incubated with PF-03084014; type: cell-based, human; conditions: MM.1S target cells pre-incubated with PF-03084014 for 24 hours, then 24 hours co-culture (FIG. 25B)
# Description: (§1) In a separate experiment, cytolytic activities of BCMA CAR-T cells were evaluated after the target multiple myeloma cells were first pre-incubated with PF-03084014. FIG. 25A depicts the cell surface expression level of BCMA on the multiple myeloma cell line MM.1S and the BCMA negative control cell line […] after a 24-hour culture in the presence of increasing concentrations of the gamma secretase inhibitor PF-03084014. The data is shown as mean fluorescence intensity (MFI) values of BCMA. FIG. 25B depicts the cytolytic activity of BCMA CAR T cells against MM.1S cells previously treated with PF-03084014 for 24 hours. In the cytolytic assay, BCMA CAR T cells and target cells were co-cultured at different effector to target (E:T) ratios for 24 hours and residual target cell viability was measured using bioluminescence. Results are shown as mean+/−SEM.
# [2] = test system: BCMA CAR-T cells; experiment: Target-dependent BCMA CAR-T cell proliferation in the presence of PF-03084014 (co-culture with REH-BCMA cells); type: cell-based, human; conditions: Day 5, up to the highest concentration (FIG. 23)
# Source text: A BCMA-negative acute lymphocytic leukemia cell line (REH) was genetically modified to overexpress BCMA with the use of a lentiviral vector encoding the human BCMA protein under regulatory control of the EF1alpha promoter (REH-BCMA cells). BCMA-overexpressing cells co-expressing luciferase and green fluorescent protein (GFP) were then created by transducing the cells with a Luc2AGFP/Blasticidin lentiviral vector following the manufacturer's recommendations. The exemplary BCMA CAR tested in the experiments comprises the VH amino acid sequence of SEQ ID NO: 33 and VL amino acid sequence of SEQ ID NO: 34). The BCMA CAR-T cells were generated and cryopreserved as previously described (Sommer et al., Molecular Therapy 2019, 27 (6): 1126-1138), thawed, and used in the assays as follows. Briefly, 5×10^5 CAR^+ T cells were co-cultured with 2×10^6 REH-BCMA cells in 2.5 mL of target cell medium (RPMI with L-glutamine, 10% FBS) without IL-2 using G-Rex 24-well plates. PF-03084014 was added to cells at increasing concentrations whereas the control wells received vehicle. […] On Day 5, cells were counted and the percentage of residual target cells and CAR-T cells were determined by flow cytometry analysis. […] Target-cell dependent proliferation/persistence in the presence or absence of PF-03084014 was determined by dividing the total number of CAR^+ cells by the starting cell number (5×10^5).
# [3] = test system: gamma secretase; experiment: Surface BCMA by flow cytometry / inhibition of gamma secretase activity in Molp-8 cells exposed to PF-03084014; type: cell-based, human
# Description: (§2) The BCMA-expressing multiple myeloma cell lines MM.1S and Molp-8 (ATCC), and the BCMA-negative acute lymphocytic leukemia cell line REH (ATCC) were expanded in RPMI medium containing L-glutamine and 10% FBS in a humidified CO2 incubator set to 37 degrees. The gamma secretase inhibitor (GSI) PF-03084014 (nirogacestat in the hydrobromide salt form, Sigma-Aldrich, #PZ0298) was diluted in H2O at mg/mL and further diluted in cell culture medium as needed. Cells were cultured in the presence of increasing concentrations of PF-03084014 or vehicle (control) in a humidified CO2 incubator set to 37° C. for 4 hours or 24 hours. Cells were then harvested by centrifugation for 5 min at 400×g and stained with a phycoerythrin (PE)-labeled anti-human BCMA antibody (BioLegend, Cat #357504) for 30 min at 4° C. Samples were analyzed by flow cytometry using a Cytoflex flow cytometer (Beckman Coulter) and expression levels of BCMA (mean fluorescence intensity, MFI) were determined using FlowJo version 10.4.1. Fold-change in surface BCMA was calculated as the MFI value of GSI-treated cells divided by the MFI value of cells receiving vehicle control. Maximal (100%) inhibition of gamma-secretase activity was defined as the maximal fold-change in surface BCMA. To obtain half-maximal effective concentration (EC50) values, gMFI was plotted as a function of the logarithm of the concentration of PF-03084014. The data was then fitted using a non-linear regression (four-parameter logistic curve) function and EC50 was calculated using GraphPad.
# [4] = test system: MM.1S, Molp-8 and REH-BCMA cells; experiment: In vitro cytolytic activity of BCMA CAR-T cells in the presence of PF-03084014 (luciferase); type: cell-based, human; conditions: PF-03084014 0.01 μM to 10 μM added during 24 hour co-culture, E:T 1:3, 1:1, 3:1 (FIG. 24)
# Description: The multiple myeloma cell lines MM.1S and Molp-8 and the BCMA-overexpressing REH cell line (REH-BCMA cells) were used in these assays. The target cell lines have been modified to constitutively express the luciferase gene which allows assessment of cell viability via luminescence. The cytotoxic activity of BCMA CAR-T cells was determined by measuring the reduction of luminescence signal from live target cells after 24 hour co-culture with BCMA CAR-T cells at increasing effector to target (E:T) ratios (1:3, 1:1, 3:1). Briefly, 2×10^4 luciferase-expressing target cells were co-cultured with BCMA CAR-T cells at defined E:T ratios in target cell culture medium (RPMI with L-glutamine, 10% FBS) without IL-2. The GSI PF-03084014 was added to wells at increasing concentrations (0.01 μM to 10 μM) and cells were cultured in a humidified CO2 incubator set to 37° C. for 24 hours. Following the incubation period, 100 μL of Bright-GLO reagent (Promega) were added and luminescence was read on a luminometer (Spectramax; Molecular Devices). Relative luminescence units (RLU) were converted to percentage of lysed target cells using the formula 100×[1−(RLUtest/RLUcontrol)]. Untreated target cells were used to determine RLU control.
# [5] = 100 mg BID, solid tumor patients; cited from earlier work
# [6] = test system: BCMA-negative REH cells; experiment: Surface BCMA by flow cytometry in BCMA-negative REH control cells exposed to PF-03084014; type: cell-based, human; conditions: REH negative control cell line, 4-hour treatment
# Description: as §2, with “To obtain half-maximal effective concentration (EC50) values, gMFI was plotted as a function of the logarithm of the concentration of PF-03084014.” left out
# [7] = Phase 1 dose-finding study (A8641014) of nirogacestat, minimum concentration; type: in vivo, human; conditions: 100 mg BID, solid tumor patients; conversion of ng/mL value
# Description: See, e.g., FIG. 22C. […] A dose of 100 mg BID nirogacestat is expected to maintain serum concentrations of nirogacestat at or above the levels required to prevent the cleavage of BCMA by gamma secretase, thereby leading to reduced soluble BCMA and increased membrane-bound BCMA.
# [8] = test system: gamma secretase; experiment: Surface BCMA by flow cytometry / inhibition of gamma secretase activity in MM.1S cells exposed to PF-03084014; type: cell-based, human
# Description: as §2, §1
# [9] = 4-hour treatment, dose-dependent (FIG. 22A)
compound,measurement,setting,value
"CCC[C@H](N[C@H]1CCc2cc(F)cc(F)c2C1)C(=O)Nc1cn(C(C)(C)CNCC(C)(C)C)cn1 [PF-03084014, nirogacestat]",Effect on cytolytic activity of BCMA CAR T cells,[1],enhanced cytolytic effect
same,Effect on target-dependent BCMA CAR-T cell expansion,[2],did not negatively affect CAR-T cell expansion
same,Levels of BCMA on the cell surface,[3]; [9],increased levels of BCMA detected on the cell surface
same,Inhibition of gamma secretase activity,[3]; 24 hours treatment (FIG. 22C),dose-dependent inhibition of gamma secretase activity
same,EC50,"[3]; 24 hours treatment, flow cytometry of surface BCMA, read-out: EC50 on gamma secretase (surface BCMA) determined using the Molp-8 cell line",0.0224 µM
same,Effect on target cell killing by BCMA CAR-T cells,[4],enhanced target cell killing was not observed
same,Minimum concentration (Cmin),[5],0.232 µg/mL
same,Dose-dependent increase of BCMA on the cell surface,[6],not seen
same,Minimum concentration (Cmin),[7],approximately 480 nM
same,Levels of BCMA on the cell surface,[8]; [9],increased levels of BCMA detected on the cell surface
same,Levels of BCMA on multiple myeloma cells (MFI),[8]; 24 hours incubation (FIG. 25A),increased levels of BCMA
same,Inhibition of gamma secretase activity,[8]; 24 hours treatment (FIG. 22C),dose-dependent inhibition of gamma secretase activity
same,EC50,"[8]; 24 hours treatment, flow cytometry of surface BCMA, read-out: EC50 on gamma secretase (surface BCMA) determined using the MM.1S cell line",0.00012 µM
